According to US20020026053A1, “Novel 3-(substituted) -2- indolinones compounds and use thereof as inhibitors of protein kinase activity” (priority 1997, published 2002):

tested on: FLK-1 receptor; test: FLK-1 Assay (cellular/catalytic ELISA, VEGF-stimulated phosphotyrosine); format: cell-based; parameters: concentration or dose not given beside the values; conditions: protocol P.110
In short: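 Receptor phosphotyrosine ELISA: Flk-1-expressing NIH3T3 C7#3 cells, starved overnight in 0.1% FBS medium, received compound (1:200 final dilution, 0.5% DMSO) for 2 h at 37 °C, then VEGF. Anti-FLK-1-captured receptor was probed with anti-phosphotyrosine UB40 and peroxidase/ABTS read-out, relative to cells without compound.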

Row | SMILES | Flk Kinase % Inhibition (P.110)
1 | O=C1Nc2ccc(S(=O)(=O)N3CCOCC3)cc2C1=Cc1cc(F)ccc1F [10737/F04] | 12.2%
2 | O=C1Nc2ccc(S(=O)(=O)N3CCOCC3)cc2C1=Cc1cccc(F)c1F [10737/F05] | 18.4%
3 | COc1ccc(C=C2C(=O)Nc3ccc(S(=O)(=O)N4CCOCC4)cc32)cc1F [10737/F06] | 12.3%
4 | Cc1ccc(C)c(C=C2C(=O)Nc3ccc(S(=O)(=O)N4CCOCC4)cc32)c1 [10737/F07] | 19.1%
5 | O=C1Nc2ccc(S(=O)(=O)N3CCOCC3)cc2C1=Cc1ccc2ccccc2c1 [10737/F08] | 20.7%
6 | O=C1Nc2ccc(S(=O)(=O)N3CCOCC3)cc2C1=Cc1ccc(Oc2ccccc2)cc1 [10737/F09] | 15.4%
7 | CC(C)(C)c1ccc(Oc2cccc(C=C3C(=O)Nc4ccc(S(=O)(=O)N5CCOCC5)cc43)c2)cc1 [10737/F10] | 26.1%
8 | O=C1Nc2ccc(S(=O)(=O)N3CCOCC3)cc2C1=Cc1cccc(Oc2cccc(C(F)(F)F)c2)c1 [10737/F11] | 31.6%
9 | CCOc1ccc(C=C2C(=O)Nc3ccc(CCCl)cc32)cc1 [10737/G02] | 8.7%
10 | Cc1ccc(C=C2C(=O)Nc3ccc(CCCl)cc32)c(C)c1 [10737/G03] | 13.6%
11 | O=C1Nc2ccc(CCCl)cc2C1=Cc1cc(F)ccc1F [10737/G04] | 12.1%
12 | O=C1Nc2ccc(CCCl)cc2C1=Cc1cccc(F)c1F [10737/G05] | 16.4%
13 | COc1ccc(C=C2C(=O)Nc3ccc(CCCl)cc32)cc1F [10737/G06] | 12.8%
14 | Cc1ccc(C)c(C=C2C(=O)Nc3ccc(CCCl)cc32)c1 [10737/G07] | 20.3%
15 | O=C1Nc2ccc(CCCl)cc2C1=Cc1ccc2ccccc2c1 [10737/G08] | 16.4%
16 | O=C1Nc2ccc(CCCl)cc2C1=Cc1ccc(Oc2ccccc2)cc1 [10737/G09] | 15.2%
17 | CC(C)(C)c1ccc(Oc2cccc(C=C3C(=O)Nc4ccc(CCCl)cc43)c2)cc1 [10737/G10] | 13.3%
18 | O=C1Nc2ccc(CCCl)cc2C1=Cc1cccc(Oc2cccc(C(F)(F)F)c2)c1 [10737/G11] | 11.7%
19 | CCOc1ccc(C=C2C(=O)Nc3c(Br)cc(Br)c(C)c32)cc1 [10737/H02] | 3.1%
20 | Cc1ccc(C=C2C(=O)Nc3c(Br)cc(Br)c(C)c32)c(C)c1 [10737/H03] | 3.2%
21 | Cc1c(Br)cc(Br)c2c1C(=Cc1cc(F)ccc1F)C(=O)N2 [10737/H04] | 11.6%
22 | Cc1c(Br)cc(Br)c2c1C(=Cc1cccc(F)c1F)C(=O)N2 [10737/H05] | 9.9%
23 | COc1ccc(C=C2C(=O)Nc3c(Br)cc(Br)c(C)c32)cc1F [10737/H06] | 5.8%
